For experiment [1], the target named is T1, CCR1 (Homo sapiens, UniProt P32246).
T1 sequence (P32246 1-355): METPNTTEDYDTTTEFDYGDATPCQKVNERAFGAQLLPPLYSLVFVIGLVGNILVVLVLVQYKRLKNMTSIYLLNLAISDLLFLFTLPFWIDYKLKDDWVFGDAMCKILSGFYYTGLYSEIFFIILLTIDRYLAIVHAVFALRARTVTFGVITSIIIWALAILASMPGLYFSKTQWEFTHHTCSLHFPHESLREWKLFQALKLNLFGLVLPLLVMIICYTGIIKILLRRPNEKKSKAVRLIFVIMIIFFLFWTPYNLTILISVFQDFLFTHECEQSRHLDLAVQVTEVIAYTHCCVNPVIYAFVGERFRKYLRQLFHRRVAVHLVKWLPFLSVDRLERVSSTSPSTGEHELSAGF
Nature of the experiment: Inhibition of CCR1 ligand binding (125I labeled MIP-1α binding to CCR1 expressing cells). On the set-up: expressed in transfected cells; host or cells: NSO murine myeloma (CCR1-NSO) or HEK 293 (CCR1-293). On the procedure:
CCR1 expressing cells were centrifuged and resuspended in assay buffer (20 mM HEPES pH 7.1, 140 mM NaCl, 1 mM CaCl2, 5 mM MgCl2, and with 0.2% bovine serum albumin) to a concentration of 5.6×10^6 cells/ml (CCR1-NSO) or 2.2×10^6 cells/ml ([…].). Screening assays were set up as follows. First, 0.09 ml of cells (5×10^5 CCR1-NSO cells/well or 2×10^5 CCR1-293 cells/well) was added to the assay plates containing the compounds, giving a final concentration of ˜2-10 μM each compound. Then 0.09 ml of ^125I labeled MIP-1α (obtained from Amersham; Piscataway, N.J.) diluted in assay buffer to a final concentration of ˜50 pM, yielding ˜30,000 cpm per well, was added, the plates sealed and incubated for approximately 3 hours at 4° C. on a shaker platform. Reactions were aspirated onto GF/B glass filters pre-soaked in 0.3% polyethyleneimmine (PEI) solution, on a vacuum cell harvester (Packard Instruments; Meriden, Conn.). Scintillation fluid (50 μl; Microscint 20, Packard Instruments) was added to each well, the plates were sealed and radioactivity measured in a Top Count scintillation counter (Packard Instruments). Control wells containing either diluent only (for total counts) or excess MIP-1α or MIP-1β ([…], for non-specific binding) were used to calculate the percent of total inhibition for each set of compounds. After testing the CLIP plates, wells with 40% or greater inhibition were confirmed. If confirmed, the individual compounds of the CLIP's were tested for reactivity (deconvolution step). IC50 values are those concentrations required to reduce the binding of labeled MIP-1α to the receptor by 50%.
To identify small organic molecules that prevent the receptor CCR1 from binding ligand, an assay was employed that detected radioactive ligand (MIP-1α) binding to cells expressing exogenous CCR1 on the cell surface.
A NSO murine myeloma cell line (CCR1-NSO) and a human embryonic kidney (HEK) carcinoma cell line (CCR1-293) were constructed that constitutively expressed human CCR1 on the cell surface; these cells lack other chemokine receptors that bind MIP-1α. Equal numbers of cells were added to each well in the CLIP plate, where each pool contained 10 candidate organic compounds. The cells were then incubated with radio labeled MIP-1α. Unbound ligand was removed by washing the cells, and bound ligand was determined by quantifying radioactive counts. Cells that were incubated without any organic compound gave total counts; non-specific binding was determined by incubating the cells with unlabeled ligand and labeled ligand. Percent inhibition was determined by the equation:
% inhibition=1−[(sample cpm)−(nonspecific cpm)]/[(total cpm)−(nonspecific cpm)]×100
To ascertain a candidate compound's affinity for CCR1 as well as confirm its ability to inhibit ligand binding, inhibitory activity was titered over 1×10^−8 to 1×10^−4 M range of compound concentration. The assay was essentially the same as for the CLIP screens, except the amount of compound was varied; cell number and ligand concentration were held constant. Only those compounds that were commercially available at the time of the experiments were titered. Of the 22 candidates identified, the following 16 were subjected to dose response experiments: CCX-3343, CCX-1057, CCX-1307, CCX-1513, CCX-238, CCX-3345, CCX-3493, CCX-4425, CCX-4462, CCX-4682, CCX-469, CCX-5062, CCX-5119, CCX-541, CCX-6019 and CCX-6530.

Experiment [2] concerns bradykinin-induced calcium signaling. As to the kind of experiment: Calcium mobilization in response to bradykinin (specificity control). Format: cell-based, human. Also on record: key: +: pulse observed; −: no pulse observed; n.s.: non-specific signal. The conditions noted are these: CCR1-293 or THP-1 cells loaded with INDO-1; compound 10 to 20 μM; bradykinin added after MIP-1α. The procedure: (§1) To detect the release of intracellular stores of calcium, cultured cells were incubated with 3 μM of INDO-1AM dye (Molecular Probes; Eugene, Oreg.) in cell media for 45 minutes at room temperature and washed with phosphate buffered saline (PBS). After INDO-1AM loading, the cells were resuspended in flux buffer (Hank's balanced salt solution (HBSS) and 1% FBS). Calcium mobilization was measured using a Photon Technology International spectrophotometer (Photon Technology International; New Jersey) with excitation at 350 nm and dual simultaneous recording of fluorescence emission at 400 nm and 490 nm. Relative intracellular calcium levels were expressed as the 400 nm/490 nm emission ratio. Experiments were performed at 37° C. with constant mixing in cuvettes each containing 10^6 cells in 2 ml of flux buffer. The chemokine ligands may be used over a range from 1 to 100 nM. The emission ratio was plotted over time (typically 2-3 minutes). Candidate ligand blocking compounds (10 to 20 μM) were added at 10 seconds, followed by chemokines at 60 seconds (MIP-1α; R&D Systems; Minneapolis, Minn.) and control […] (bradykinin; ICN Pharmaceutical, Costa Mesa, Calif.) at 150 seconds. In some experiments, candidate blocking compounds and cells were added simultaneously, and MIP-1α was added 40 seconds later.
(§2) Calcium ion release in response to MIP-1α binding was measured using the cell permeable INDO-1/AM indicator, which fluoresces in the presence of free, but not chelated, calcium ions. CCR1-293 or THP-1 cells were loaded with INDO-1 and assayed for calcium release in response to MIP-1α addition. To control for specificity, a second, non-CCR1 binding […], bradykinin, was added, which also signals via a seven transmembrane receptor. Without compound, a pulse of fluorescent signal will be seen upon MIP-1α addition.

Experiment [3] addresses T1, CCR1. Nature of the experiment: Calcium mobilization in response to MIP-1α (INDO-1). Format: cell-based. Also on record: expressed in transfected cells; host or cells: HEK 293 (CCR1-293), pIRESpuro vector; key to MIP-1α: calcium pulse: +: pulse observed; −: no pulse observed; n.s.: non-specific signal. Particulars: for MIP-1α: calcium pulse: CCR1-293 or THP-1 cells loaded with INDO-1, compound 10 to 20 μM added before MIP-1α; for Comments (inhibition of calcium signaling) / Inhibition of CCR1 calcium signaling, result in words: Table 2; for Inhibition of CCR1 calcium signaling, result in words: MIP-1α versus bradykinin. The procedure:
as §1
CCR1 is a seven transmembrane, G-protein linked receptor. A hallmark of signaling cascades induced by the ligation of such receptors is the pulse-like release of calcium ions from intracellular stores. Calcium mobilization assays were performed to determine if the candidate MIP-1α inhibitory compounds were able to also block CCR1 signaling. To be useful, candidate compounds able to inhibit specifically ligand binding and signaling were desired.
as §2
On the technique in general: Calcium flux is commonly read through the fluorescence of an indicator in the cells.

Setting [4] is: CCR1-NSO cells, compound titered 1×10^−8 to 1×10^−4 M, read-out: IC50 (Inhibition Constant; μM), CCR1-MIP-1α binding.
The mark [5] stands for this setting: CCR1-293 cells, compound titered 1×10^−8 to 1×10^−4 M, * = partially blocked MIP-1α binding at the highest tested concentration, read-out: IC50 (Inhibition Constant; μM), CCR1-MIP-1α binding.
Setting [6] is: compound titered 1×10^−8 to 1×10^−4 M, cells not given.
Setting [7] is: dose response, cells not given, read-out: CCR1 affinity (MIP-1α binding).

Like-named read-outs stand apart in the source and are kept apart here.

With `O=C(O)c1ccc2c(c1)C1C=CCC1C(C(=O)O)N2` (stereo not shown) [CCX-1959], on CCR1 [1] (setting [4]), the IC50 was 0.36 µM.
Consider `O=C(C[n+]1ccc(-c2ccccc2)cc1)Nc1ccc([N+](=O)[O-])cc1` [CCX-1057], for which the IC50 on CCR1 [1] (setting [5]) is 2 µM.
Take `O=C1NCCCCC1N(Cc1ccccc1F)C(=O)C(c1ccccc1)c1ccccc1` (stereo not shown) [CCX-469]: the IC50 at CCR1 [1] (setting [5]) is 2 µM. For the same compound, the IC50 on CCR1 [1] (setting [4]) turned out to be 0.6 µM. Moreover, the “Bradykinin: calcium pulse” value in experiment [2] is listed as “+”. Also, on CCR1 [3], the “MIP-1α: calcium pulse” value is “−”; the “Comments (inhibition of calcium signaling)” value is “Clear and specific”; the “Inhibition of CCR1 calcium signaling, result in words” value (from here on “Inhibition of CCR1 calcium signaling”) was “able to significantly and specifically inhibit signaling from CCR1”.
Turning to `O=C(O)C1=C(Sc2ccc(Cl)cc2)CSC1` [CCX-4682], on CCR1 [1] (setting [4]), the IC50 was 44 µM.
For the compound `O=C(NN(Cc1c(F)cccc1Cl)c1ccccc1)C(Cl)(Cl)Cl` [CCX-6019], on CCR1 [1] (setting [4]), the IC50 worked out at 25 µM.
Turning to `Cc1ccc(C(/C(Cl)=C(\Cl)C(=O)O)c2ccc(C)cc2C)c(C)c1` [CCX-541], the IC50 at CCR1 [1] (setting [4]) was 0.4 µM. Besides, in experiment [2], the “Bradykinin: calcium pulse” value was “n.s”. Also, on CCR1 [3], the “MIP-1α: calcium pulse” value was “n.s”; the “Comments (inhibition of calcium signaling)” value is listed as “Calcium levels increased non-”; the “Inhibition of CCR1 calcium signaling” value was “non-specific effects on calcium levels”.
Turning to `S=c1[nH]nc(-c2ccc(Cl)cc2)n1-c1cccnc1` [CCX-3493], at CCR1 [1] (setting [5]), the IC50 worked out at 18 µM. In addition, on CCR1 [1] (setting [4]), the IC50 was found to be 1.7 µM. Moreover, the “Bradykinin: calcium pulse” value in experiment [2] was “+”. In addition, on CCR1 [3], the “MIP-1α: calcium pulse” value is listed as “+”; the “Comments (inhibition of calcium signaling)” value is given as “No inhibition”; the “Inhibition of CCR1 calcium signaling” value is “did not affect signaling, whether MIP-1α or bradykinin induced”.
`CC(=O)C1=C(O)C(=O)N(c2ccc(Br)cc2)C1c1ccc(F)cc1` (stereo not shown) [CCX-5062]: at CCR1 [1] (setting [6]), the “Dose-response inhibition of MIP-1α binding, result in words” value (shortened to “Dose-response inhibition”) is “failed to completely inhibit MIP-1α binding at the highest tested concentration”. Besides, the IC50 on CCR1 [1] (setting [7]) was approximately 2 µM.
As for `CC1CCC(C(C)C)C(OCC(O)CN2CCC(Cc3ccccc3)CC2)C1` (stereo not shown) [CCX-3345], the “Dose-response inhibition” value at CCR1 [1] (setting [6]) is listed as “failed to completely inhibit MIP-1α binding at the highest tested concentration”. On CCR1 [1] (setting [7]), the IC50 is approximately 2 µM.
On to `CC1CCC(C(C)C)C(OCC(O)CN2CCN(c3ccc(F)cc3)CC2)C1` (stereo not shown) [CCX-3343], for which the “Dose-response inhibition” value at CCR1 [1] (setting [6]) is recorded as “failed to completely inhibit MIP-1α binding at the highest tested concentration”. Besides, the IC50 at CCR1 [1] (setting [7]) was approximately 2 µM.
As to `O=C(c1ccc(Cl)c(Cl)c1)C12CN3CN(CN(C3)C1)C2` [CCX-1307], the IC50 at CCR1 [1] (setting [5]) was found to be 2 µM.
The same measure, in the same setting: with `CC[n+]1c(/C=C/C=C2/N(C)c3ccccc3C2(C)C)ccc2c1c1cc(Br)ccc1n2C` [CCX-2324] the figure was 2 µM.
For `COC(=O)c1cc(C#N)c(Sc2c([N+](=O)[O-])cc(C(F)(F)F)cc2[N+](=O)[O-])nc1C(OC)OC` [CCX-5119], the IC50 on CCR1 [1] (read-out: IC50 (Inhibition Constant; μM), CCR1-MIP-1α binding, CCR1-293 cells, compound titered 1×10^−8 to 1×10^−4 M, * = partially blocked MIP-1α binding at the highest tested concentration) was found to be 45 µM.
On to `c1ccc(C2C3=C(Nc4nc5ccccc5n42)c2ccccc2CCC3)cc1` (stereo not shown) [CCX-1080], for which the IC50 on CCR1 [1] (setting [5]) was found to be 2 µM.
